Data published in patent publication US7524871B2, “Thrombin inhibitors” (University of Ljubljana, Faculty of Pharmacy, priority 2001, dated 2009).
Where two headings read alike, the source gives them in different places.

What was measured:
human thrombin = biological target: T1, human thrombin (Homo sapiens, UniProt P00734); test: Enzyme assay for determination of the activity of thrombin inhibitors (chromogenic substrate S-2238); format: biochemical
T1 construct: Thrombin (human thrombin, 308 NIH units, Sigma); purchased Sigma
Description: I. Enzyme Assay for Determination of the Activity of Thrombin Inhibitors
Thrombin cleaves amide bonds in a synthetic chromogenic substrate whereby […] coloured p-nitroaniline (p-NA) is released. The amount of p-NA produced is directly proportionate to the absorbance measured at a wavelength of 405 nm using a spectrophotometer. When thrombin inhibitor is added, the amidolytic activity of the enzyme decreases. The potency of the inhibitor is expressed by the inhibition constant (Ki).
The stock solution is pipetted into 0.5 mL aliquots and stored at −70° C. Immediately before use a working solution of thrombin of […] is prepared with HBSA buffer. The final concentration of thrombin in a microtiter plate is 0.5 NIH units/mL.
1 mM substrate solution is prepared, pipetted into 0.5 mL aliquots and stored at −20° C. Before use, 160 and 80 μM substrate solutions of the substrate are prepared with distilled water.
(§1) HBSA buffer, pH 7.5: 10 mM Hepes buffer (HEPES, Sigma), 150 mM NaCl and 0.1% (w/v) bovine serum albumin (98% bovine serum albumin, Sigma) are dissolved in bidistilled water. The pH is adjusted with 0.1 M NaOH solution.
Working solutions (final concentrations within the range 10 to 100 μM) are prepared with distilled water.
Measurements are carried out in the microtiter plate. 50 μL HBSA buffer, 50 μL inhibitor solution of different concentrations (for control 50 μL HBSA buffer) and 50 μL of thrombin solution are pipetted into the wells of a microtiter plate. The plate is incubated at a temperature of 25° C. for 15 minutes. After incubation 50 μL of the chromogenic substrate is added and the microtiter plate is placed in the spectrophotometer (Tecan, Sunrise).
(§2) Each measurement is carried out in triplicate and the result is the averaged value of three measurements.
(§3) 4. Determination of the Inhibition Constant (Ki)
Initial velocities of the reaction in the presence and absence of the inhibitor are measured. The change in the absorbance in the time unit (v) is calculated from the initial, linear part of the reaction. For competitive inhibitors it holds that
[formula] and it follows that
[formula] I=inhibitor concentration, S=substrate concentration, Km=Michaelis constant, vo=initial velocity of the reaction in the absence of inhibitor, vi=initial velocity of the reaction in the presence of inhibitor.
Measurements are carried out with two concentrations of the inhibitor and two concentrations of the substrate.

Trypsin (bovine) = biological target: T2, Trypsin (bovine) (Bos taurus, UniProt P00760); test: Determination of selectivity of the inhibitor activity against thrombin with respect to trypsin inhibition (chromogenic substrate S-2222); format: biochemical; settings: for Ki: bovine trypsin 1 mU/mL, S-2222 100 and 50 μM, HBSA buffer pH 7.5; for Ki trypsin/ Ki thrombin: selectivity, ratio of Ki for trypsin to Ki for thrombin
T2 construct: purchased Sigma
T2 sequence (P00760 24-246): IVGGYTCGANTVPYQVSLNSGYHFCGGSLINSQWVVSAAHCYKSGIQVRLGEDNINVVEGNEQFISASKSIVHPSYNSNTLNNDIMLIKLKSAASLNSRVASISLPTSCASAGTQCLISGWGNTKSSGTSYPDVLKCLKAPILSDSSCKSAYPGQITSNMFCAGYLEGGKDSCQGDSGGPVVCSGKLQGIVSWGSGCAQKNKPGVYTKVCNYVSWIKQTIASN
Description: II. Determination of Selectivity of the Inhibitor Activity Against Thrombin with Respect to Trypsin Inhibition
The inhibitory activity against thrombin is determined as described above. Trypsin inhibition is measured in the same manner as in determination of inhibitory activity for thrombin except that a different chromogenic substrate is used. For both enzymes Ki is calculated. Selectivity of the inhibitor is expressed as a ratio of Ki for trypsin to Ki for thrombin.
Trypsin (bovine, 6000 BAEE Units/mg protein, Sigma): A stock solution of trypsin with the activity of 300 U/mL is prepared, pipetted into 0.2 mL aliquots and stored at −70° C. Immediately before use, the stock solution is thawed and a working solution of 4 mU/mL is prepared with HBSA buffer. The final trypsin activity in a microtiter plate is 1 mU/mL.
Before use the stock solution is thawed and 400 and 200 μM substrate solutions are prepared The final concentrations of the substrate in the reaction mixture are 100 and 50 μM.
as §1
Working solutions (final concentrations in the range from 10 to 600 μM) are prepared with distilled water.
as §2
The procedure is the same as the procedure described for determination of the inhibitory activity against thrombin. The concentrations of the reagents described for determination of the inhibitory activity with respect to trypsin are used.
as §3
It is determined in the same manner as determination of Ki for thrombin.
5. Determination of the Selectivity
Ki for thrombin and Ki for trypsin are determined. The selectivity is defined as the ratio: […]

[1] = human thrombin 0.5 NIH units/mL, S-2238 40 and 20 μM, HBSA buffer pH 7.5, 25° C., read-out: Ki thrombin

Compound	Ki (human thrombin; [1])	Ki (Trypsin (bovine))	Ki trypsin/ Ki thrombin (Trypsin (bovine))	Ki (human thrombin)
Cc1ccc(NS(=O)(=O)Cc2ccc(F)cc2Cl)c(=O)n1CC(=O)NCC1CCc2n[nH]cc2C1 (stereo not drawn)	0.16 µM	> 300 µM	>1875	–
Cc1ccc(NS(=O)(=O)Cc2ccc(F)cc2Cl)c(=O)n1CC(=O)NC1CCc2nc(N)sc2C1 (stereo not drawn)	–	193 µM	1097	0.16 µM
Cc1ccc(NS(=O)(=O)Cc2cccc(C(F)(F)F)c2)c(=O)n1CC(=O)NC1CCc2nc(N)sc2C1 (stereo not drawn)	0.65 µM	> 200 µM	>300	–
CCCCS(=O)(=O)Nc1ccc(C)n(CC(=O)NC2CCc3nc(N)sc3C2)c1=O (stereo not drawn)	1.3 µM	50 µM	37	–

The next lines start with results.

Ki (human thrombin; [1])	Ki (Trypsin (bovine))	Ki trypsin/ Ki thrombin (Trypsin (bovine))	Compound	Ki (human thrombin)
0.21 µM	376 µM	1790	Cc1ccc(NS(=O)(=O)Cc2ccccc2)c(=O)n1CC(=O)NCC1CCc2n[nH]cc2C1 (stereo not drawn)	–
0.16 µM	260 µM	1625	Cc1ccc(NS(=O)(=O)Cc2ccccc2)c(=O)n1CC(=O)NC1CCc2nc(N)sc2C1 (stereo not drawn)	–
0.69 µM	147 µM	213	Cc1ccc(NCCc2ccccc2)c(=O)n1CC(=O)NC1CCc2nc(N)sc2C1 (stereo not drawn)	–
0.82 µM	421 µM	526	Cc1ccc(NCCc2ccccc2)c(=O)n1CC(=O)NCC1CCc2n[nH]cc2C1 (stereo not drawn)	–
4.7 µM	438 µM	93	Cc1ccc(NS(=O)(=O)Cc2ccccc2)c(=O)n1CC(=O)NC1CCc2n[nH]cc2C1 (stereo not drawn)	–
